Results published in US20120277211A1, “METHODS AND COMPOSITIONS FOR THE TREATMENT OF PSYCHOTIC DISORDERS THROUGH THE IDENTIFICATION OF THE SULT4A1-1 HAPLOTYPE” (priority 2009, published 2012).
Where two headings read alike, the source gives them in different places. Marks after values point to notes of the source that are not given here.

What was measured:
[1] = system: African American schizophrenia patients; assay: CATIE: change in total PANSS (LOCF) by SULT4A1-1 haplotype status, African Americans; format: in vivo, human; details: for Number of individuals with change in total PANSS ≦−20% (responders) / Number of individuals with change in total PANSS ≧−20% (non-responders): LOCF
Experimental: The design of the CATIE study has been described in detail by others (Lieberman et al., 2005; Stroup et al., 2003). […] A total of 738 subjects consented to provide DNA for genetic study. […] Retrospective genetic analyses, judged to be exempt from human studies requirements by an IRB, were conducted in the current study. All tested patients were studied using well established clinical endpoints comparing baseline, intermediate, and last observation carried forward (LOCF) for the PANSS scores using CATIE data. […] To remove time on drug as a variable for the CATIE trial, analysis was limited to only those patients who were randomized to a different drug following the initial washout period (drug switchers).

[2] = system: Caucasian schizophrenia patients; assay: CATIE: time to discontinuation for all causes by SULT4A1-1 status; format: in vivo, human; details: SULT4A1-1 negative
Excerpt: The primary endpoint for the CATIE study was time to discontinuation for all causes (Lieberman et al., 2005). Thus the inventors evaluated the effect of SULT41-1 status on this important parameter.

schizophrenia patients [3] = assay: CATIE: months of successful treatment measured by the CGI scale (TMSUCC1); format: in vivo, human
Excerpt: The CATIE clinical data set included Clinical Global Impression (CGI) Scale, an observer-provided assessment of the psychiatric health of the patient (Stroup et al., 2003; Guy 1976). Patients are rated with the CGI Scale from 1 to 7, with higher scores indicating greater severity of illness. The CATIE study provided a response variable that measured the time (in months) of successful treatment as measured by the CGI scale (“TMSUCC1” in the CATIE data).

[4] = system: Caucasian schizophrenia patients; assay: CATIE: hospitalization due to exacerbation of psychosis by SULT4A1-1 status; format: in vivo, human
Excerpt: To assess if SULT4A1-1 status impacts the risk of hospitalization in Caucasians, the inventors assigned SULT4A1-1 status to each CATIE subject and evaluated hospitalization events due to exacerbation of psychosis. For this analysis, the inventors assigned a dichotomous value (positive or negative) for hospitalization status to subjects in each phase of the trial based on only the first hospitalization event for a given patient in that phase. Patients participating in Phases 1, 2, and/or 3 were included in the totals for the appropriate drug.
A Kaplan-Meier survival analysis was performed to determine whether there was a difference between the survival (hospitalization) rates for the SULT4A1-1 negative and SULT4A1-1 positive patient populations treated with each of the atypical antipsychotics. Survival plots model the fraction of the population that survived (i.e., no hospitalization event) as a function of time.

schizophrenia patients [5] = details: Phase II; for Responders: decrease PANSS ≧20%, LOCF
schizophrenia patients [6] = details: published CATIE results (Lieberman et al. 2005); cited from earlier work

Cc1cc2c(s1)Nc1ccccc1N=C2N1CCN(C)CC1 [Olanzapine]
Responders ([1]; SULT4A1-1 negative): 33.3% | Number of individuals with change in total PANSS ≦−20% (responders) ([1]; SULT4A1-1 negative): 15 | Number of individuals with change in total PANSS ≧−20% (non-responders) ([1]; SULT4A1-1 negative): 30 | Responders ([1]; SULT4A1-1 positive): 25% | Number of individuals with change in total PANSS ≦−20% (responders) ([1]; SULT4A1-1 positive): 1 | Number of individuals with change in total PANSS ≧−20% (non-responders) ([1]; SULT4A1-1 positive): 3 | Time to discontinuation, mean [2]: 10.0** Months | Length of successful treatment (CGI Months), Mean (schizophrenia patients [3]; SULT4A1-1 negative): 5.44 Months | Length of successful treatment (CGI Months), Mean (schizophrenia patients [3]; SULT4A1-1 positive): 8.33^d Months | Length of successful treatment (CGI Months), Mean (schizophrenia patients [3]; Unsegmented): 6.10 Months | HOSP, number of patients hospitalized ([4]; SULT4A1-1 negative): 22 | HOSP, number of patients hospitalized ([4]; SULT4A1-1 positive): 1 | HOSP, rate of hospitalization ([4]; SULT4A1-1 positive): 2.6% | HOSP, rate of hospitalization ([4]; Unsegmented): 14.2% | HOSP, number of patients hospitalized ([4]; Unsegmented, Phases 1, 2 and/or 3, first event): 23 | Nonresponders (schizophrenia patients [5]; SULT4A1-1 Negative): 14 | Responders (schizophrenia patients [5]; SULT4A1-1 Negative): 3 | % Responders (schizophrenia patients [5]; SULT4A1-1 Positive): 42.9% | Nonresponders (schizophrenia patients [5]; SULT4A1-1 Positive): 4 | Responders (schizophrenia patients [5]; SULT4A1-1 Positive): 3 | Incidence of clinically significant weight gain compared to other drugs (schizophrenia patients [6]): higher incidence of clinically significant weight gain
